In patent US20260138961A1, “MODULATORS OF MITOCHONDRIAL DNA REPLICATION” (Pretzel Therapeutics, Inc., priority 2022, published 2026) one finds AC50 data, which are given here for 24 molecules.

As usually defined, the AC50 is the concentration at which the activity in the assay is half-maximal.

For the test, the target named is T1, POLγA:A467T (Homo sapiens, UniProt P54098, A467T).
T1 sequence (P54098 1-1239 A467T): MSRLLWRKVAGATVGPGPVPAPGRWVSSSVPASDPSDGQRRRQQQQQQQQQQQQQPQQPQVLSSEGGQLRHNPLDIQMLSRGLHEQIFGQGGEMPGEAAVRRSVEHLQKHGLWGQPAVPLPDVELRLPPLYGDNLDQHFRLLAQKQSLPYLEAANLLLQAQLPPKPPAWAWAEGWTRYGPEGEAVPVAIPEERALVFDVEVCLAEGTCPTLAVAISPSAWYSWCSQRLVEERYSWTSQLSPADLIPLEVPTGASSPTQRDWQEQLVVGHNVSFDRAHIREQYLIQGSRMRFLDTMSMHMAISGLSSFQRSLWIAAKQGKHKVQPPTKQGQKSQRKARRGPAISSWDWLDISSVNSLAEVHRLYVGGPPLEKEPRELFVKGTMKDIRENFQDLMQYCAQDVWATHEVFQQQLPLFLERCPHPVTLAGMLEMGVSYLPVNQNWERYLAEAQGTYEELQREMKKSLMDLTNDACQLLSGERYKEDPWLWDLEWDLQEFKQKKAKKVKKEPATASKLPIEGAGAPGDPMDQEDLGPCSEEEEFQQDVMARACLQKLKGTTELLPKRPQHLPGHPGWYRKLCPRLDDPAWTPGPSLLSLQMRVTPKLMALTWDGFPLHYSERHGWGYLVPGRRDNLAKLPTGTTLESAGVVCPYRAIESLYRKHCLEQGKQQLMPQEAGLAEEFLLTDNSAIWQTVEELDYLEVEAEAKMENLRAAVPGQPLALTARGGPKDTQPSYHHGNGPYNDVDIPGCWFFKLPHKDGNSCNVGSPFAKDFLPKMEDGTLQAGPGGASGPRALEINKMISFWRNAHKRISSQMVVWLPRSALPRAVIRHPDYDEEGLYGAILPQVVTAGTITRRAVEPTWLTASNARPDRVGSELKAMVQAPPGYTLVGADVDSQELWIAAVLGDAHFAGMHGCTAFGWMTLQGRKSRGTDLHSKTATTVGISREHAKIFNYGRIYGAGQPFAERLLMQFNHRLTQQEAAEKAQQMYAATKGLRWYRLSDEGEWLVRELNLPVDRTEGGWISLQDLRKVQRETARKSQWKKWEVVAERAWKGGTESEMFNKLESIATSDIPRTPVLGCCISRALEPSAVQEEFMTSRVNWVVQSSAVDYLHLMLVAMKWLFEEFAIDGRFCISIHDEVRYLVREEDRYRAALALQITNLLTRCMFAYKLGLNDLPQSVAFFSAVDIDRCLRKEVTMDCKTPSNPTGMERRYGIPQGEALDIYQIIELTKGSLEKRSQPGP
T1 sequence (Q9UHN1 1-485 partner): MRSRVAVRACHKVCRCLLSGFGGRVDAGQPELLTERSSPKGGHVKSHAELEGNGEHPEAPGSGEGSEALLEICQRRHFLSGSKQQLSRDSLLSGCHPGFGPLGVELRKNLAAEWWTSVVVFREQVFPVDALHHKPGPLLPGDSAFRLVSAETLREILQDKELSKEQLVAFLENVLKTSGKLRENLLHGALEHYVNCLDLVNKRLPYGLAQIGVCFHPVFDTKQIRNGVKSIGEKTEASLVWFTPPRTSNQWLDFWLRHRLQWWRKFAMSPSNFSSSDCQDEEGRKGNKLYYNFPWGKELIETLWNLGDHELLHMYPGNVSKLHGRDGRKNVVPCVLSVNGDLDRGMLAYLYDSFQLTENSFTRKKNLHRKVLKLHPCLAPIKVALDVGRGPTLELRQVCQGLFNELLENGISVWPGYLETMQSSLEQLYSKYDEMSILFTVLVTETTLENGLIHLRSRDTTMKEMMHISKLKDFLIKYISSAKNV
In words: DNA polymerization assay, POLγA:A467T mutant. The conditions noted are these: stimulation of polymerase activity, primed M13mp18 ssDNA, 37° C. 2 hours; read-out: A467T AC50. The class given is biochemical. The protocol:
DNA Polymerization Assay to Monitor Effects on Human Wildtype POLγ and Four Disease-Causing Mutant Variants of Human POLγ.
The ability of small molecules to stimulate the polymerase activity of POLγ was analyzed in a quantitative fluorescence SYBR Green I assay with fluorescence intensity (FI) readout.
In the presence of dNTPs, wild type human POLγ and mutant derivatives thereof were incubated with single-stranded, circular M13mp18 ssDNA hybridized to a short DNA oligonucleotide that functions as a primer for initiation of DNA synthesis. POLγ and mutant derivatives thereof will extend the primer and use the M13mp18 molecule as a template to synthesize long stretches of double-stranded DNA. SYBR Green I, which is a double-stranded DNA-binding dye, was used to quantify formation of double-stranded DNA in the reaction. When bound to double-stranded DNA, SYBR Green I fluorescence increases by up to 100-fold.
The assay was performed in the 384-well plate format. Upon addition of compounds, changes in double-stranded DNA synthesis activity can be monitored by following effects on fluorescent intensity.
The reactions also contained the accessory POLγB subunit, and the human mitochondrial single-stranded DNA binding protein (mtSSB).
The DNA template mixture used in the assay contained 0.5 nM primed M13 mp18 ssDNA, 400 nM mtSSB, 0.1 mM Tris-HCl (pH 8.0), 0.1 mM dNTP, 10 mM MgCl2, 0.1 mg/mL BSA, 1 mM TCEP solution, and 0.02% Triton X-100. The DNA template mixture for the wild type protein contained either 100 μM dNTP, 1 μM dNTP, or 0.1 μM dNTP, designated in Table 2 as 100 μM, 1 μM, and 0.1 μM, respectfully.
Microplates with compounds (0.1 μL in each well) to be tested in the assay were prepared from 10 mM compound stocks in 100% DMSO, and equal amounts of DMSO without any compound were added to positive and negative control wells.
The protein mixture was dispensed (5 μL into each well) into compound plates and incubated at 37° C. for 15 minutes. After incubation, 5 μL of the DNA template mixture was dispensed into each well. The plates were then incubated at 37° C. for 2 hours.
During incubation, a combined stop buffer and detection reagent solution was prepared. The buffer contained 25 mM EDTA (pH 8.0), 0.02% Triton X-100, and SYBR Green I [Invitrogen] diluted 10,000× (for fluorescent readout). EDTA will stop the enzymatic reaction by chelating magnesium ions.
Turning to `Cc1cc(S(=O)(=O)Nc2nc(-c3ccccc3)ns2)c(C)cc1Cl` [Example 132, 4-chloro-2,5-dimethyl-N-(3-phenyl-1,2,4-thiadiazol-5-yl)benzenesulfonamide], the AC50 was over 100 µM.

Regarding `Cc1ccc(C)c(S(=O)(=O)Nc2cccc(C(=O)N3CCCCC3C#N)c2)c1` (stereo not drawn) [Example 2, N-(3-(2-cyanopiperidine-1-carbonyl)phenyl)-2,5-dimethylbenzenesulfonamide], the AC50 was found to be 60 µM.

As for `C[C@@H]1CCCN1C(=O)c1cccc(NS(=O)(=O)c2ccc(C(F)(F)F)cc2)c1` [Example 118, (R)-N-(3-(2-methylpyrrolidine-1-carbonyl)phenyl)-4-(trifluoromethyl)benzenesulfonamide], the AC50 was over 100 µM.

With `Cc1cc(S(=O)(=O)Nc2cccc(C(=O)N3CCCC[C@H]3C)c2)c(C)cc1Cl` [Example 9, (R)-4-chloro-2,5-dimethyl-N-(3-(2-methylpiperidine-1-carbonyl)phenyl)benzenesulfonamide], the AC50 is 18 µM.

With `O=S(=O)(Nc1csc(-c2ccccc2)n1)c1ccc2c(c1)CCO2` [Example 152, N-(2-phenylthiazol-4-yl)-2,3-dihydrobenzofuran-5-sulfonamide], the AC50 was over 100 µM.

With `Cc1nc2c(NS(=O)(=O)c3cc(C)c(Cl)cc3C)cccc2s1` [Example 99, 4-chloro-2,5-dimethyl-N-(2-methylbenzo[d]thiazol-4-yl)benzenesulfonamide], the AC50 was over 100 µM.

In the case of `Cc1cc(S(=O)(=O)Nc2ccc3c(c2)CC(=O)N3)c(C)cc1Cl` [Example 185, 4-chloro-2,5-dimethyl-N-(2-oxoindolin-5-yl)benzenesulfonamide], the AC50 worked out at 55 µM.

With `O=S(=O)(Nc1csc(-c2ccccc2)n1)c1ccccc1Cl` [Example 125, 2-chloro-N-(2-phenylthiazol-4-yl)benzenesulfonamide], the half-maximal activity concentration (AC50) came out at 8 µM.

For the molecule `O=S(=O)(Nc1csc(-c2ccccc2)n1)c1ccc(Cl)cc1` [Example 120, 4-chloro-N-(2-phenylthiazol-4-yl)benzenesulfonamide], the concentration at half-maximal activity (AC50) is over 100 µM.

Consider `Cc1cc(S(=O)(=O)N[C@@H]2CCCN(C(=O)[C@@H]3CCCN3C)C2)c(C)cc1Cl` [Example 104, 4-chloro-2,5-dimethyl-N-((R)-1-(methyl-L-prolyl)piperidin-3-yl)benzenesulfonamide], for which the AC50 is over 100 µM.

Take `Cc1cc(S(=O)(=O)N[C@H]2CCCN(C(=O)[C@@H]3CCCN3C)C2)c(C)cc1Cl` [Example 101, 4-chloro-2,5-dimethyl-N-((S)-1-(methyl-L-prolyl)piperidin-3-yl)benzenesulfonamide]: the AC50 is over 100 µM.

On to `Cc1ccc(C)c(S(=O)(=O)Nc2cccc(C(=O)N3CCOCC3C#N)c2)c1` (stereo not drawn) [Example 7, N-(3-(3-cyanomorpholine-4-carbonyl)phenyl)-2,5-dimethylbenzenesulfonamide], for which the AC50 was found to be 37 µM.

Regarding `Cc1ccc(C)c(S(=O)(=O)Nc2cccc(C(=O)N3CCCC[C@H]3C)c2)c1` [Example 5, (R)-2,5-dimethyl-N-(3-(2-methylpiperidine-1-carbonyl)phenyl)benzenesulfonamide], the AC50 turned out to be 33 µM.

`Cc1cc(NS(=O)(=O)c2cc(C)c(Cl)cc2C)cc(-c2ncc(C)s2)c1` [Example 110, 4-chloro-2,5-dimethyl-N-(3-methyl-5-(5-methylthiazol-2-yl)phenyl)benzenesulfonamide]: the AC50 was over 100 µM.

In the case of `Cc1cc(Cl)ccc1S(=O)(=O)Nc1cccc(C(=O)N2CCC[C@H]2C)c1` [Example 116, (R)-4-chloro-2-methyl-N-(3-(2-methylpyrrolidine-1-carbonyl)phenyl)benzenesulfonamide], the concentration at half-maximal activity (AC50) was over 100 µM.

Take `Cc1cc(S(=O)(=O)Nc2cc(F)cc(C(=O)N3CCC[C@H]3C)c2)c(C)cc1Cl` [Example 13, (R)-4-chloro-N-(3-fluoro-5-(2-methylpyrrolidine-1-carbonyl)phenyl)-2,5-dimethylbenzenesulfonamide]: the AC50 is 33 µM.

On to `Cc1cc(S(=O)(=O)N[C@@H]2CCCN(C(=O)c3ccccc3)C2)c(C)cc1Cl` [Example 150, (R)-N-(1-benzoylpiperidin-3-yl)-4-chloro-2,5-dimethylbenzenesulfonamide], for which the AC50 is over 100 µM.

Regarding `Cc1cc(S(=O)(=O)Nc2cccc(C(=O)N(C)c3ccccn3)c2)c(C)cc1Cl` [Example 109, 3-((4-chloro-2,5-dimethylphenyl)sulfonamido)-N-methyl-N-(pyridin-2-yl)benzamide], the AC50 was over 100 µM.

For `O=S(=O)(Nc1csc(-c2ccccc2)n1)c1cccc(C(F)(F)F)c1` [Example 151, N-(2-phenylthiazol-4-yl)-3-(trifluoromethyl)benzenesulfonamide], the AC50 was over 100 µM.

Consider `Cc1cc(S(=O)(=O)Nc2cccc(-c3nccs3)c2)c(C)cc1Cl` [Example 16, 4-chloro-2,5-dimethyl-N-(3-(thiazol-2-yl)phenyl)benzenesulfonamide], for which the AC50 was 5 µM.

For `Cc1cc(S(=O)(=O)N[C@@H]2CCCN(c3ccccc3)C2)c(C)cc1Cl` [Example 149, (R)-4-chloro-2,5-dimethyl-N-(1-phenylpiperidin-3-yl)benzenesulfonamide], the AC50 was over 100 µM.

As to `Cc1cnc(-c2cc(NS(=O)(=O)c3cc(C)c(Cl)cc3C)ccc2Cl)s1` [Example 111, 4-chloro-N-(4-chloro-3-(5-methylthiazol-2-yl)phenyl)-2,5-dimethylbenzenesulfonamide], the AC50 was over 100 µM.

On to `O=S(=O)(Nc1csc(-c2ccccc2)n1)c1ccccn1` [Example 139, N-(2-phenylthiazol-4-yl)pyridine-2-sulfonamide], for which the AC50 is over 100 µM.

Regarding `Cc1cc(S(=O)(=O)Nc2cccc(-c3ncco3)c2)c(C)cc1Cl` [Example 17, 4-chloro-2,5-dimethyl-N-(3-(oxazol-2-yl)phenyl)benzenesulfonamide], the AC50 amounted to 6 µM.
